The results in this text go back to patent US11459332B2, “Substituted 2-azabicyclo[3.1.0]hexanes as TRK kinases inhibitors” (FOCHON BIOSCIENCES, LTD., priority 2018, dated 2022).

One may read the IC50 as the concentration at which inhibition is half-maximal.

Common to all, as to type: cell-based
The test system of one assay is KM12 cells. The experiment in a line: KM12 cells proliferation inhibition (MTS), mechanism-based TRK assay. The note with it: Homo sapiens, 72 h. The source says: (§1) MTS testing kit was purchased from Promega (Madison, Wis., USA). The RPMI-1640, Fetal bovine serum and Penicillin-Streptomycin were purchased from Gibco (San Francisco, Calif., USA). Dimethyl sulfoxide (DMSO) and Puromycin were purchased from Sigma (St. Louis, Mo., USA). Mouse interleukin-3 (IL-3) was purchased from Cell signaling Technology (Boston, Mass., USA).
To investigate whether a compound is able to inhibit the activity of TRK in cells, a mechanism-based assay using KM12 cells was developed. In this assay, inhibition of TRK was detected by the inhibition of KM12 cells proliferation. KM12 cells were cultured in culture flasks to 40-80% confluence in RPMI-1640 plus 10% fetal bovine serum. Cells were collected and plated onto 96-well plates at 1000 cells/well. Plates were incubated at 37° C., with 5% CO2 for 4 h. Compounds were added to the plates, the final compound concentrations were […], 123.5, 41.2, 13.7, 4.6 and 1.5 nM. Place plates at 37° C., with 5% CO2 for KM12 cells 72 h. 20 μl MTS/100 μl medium mixture solution were added to each well and incubate the plates for exactly 2 h. Stop the reaction by adding 25 μl 10% SDS per well. Measure absorbance at 490 nm and 650 nm (reference wavelength). IC50 was calculated using GraphPad Prism 5.0.

The next assay addresses T1, ETV6-TRKC (Homo sapiens, UniProt Q16288).
T1 construct: ETV6 (fusion partner, N-terminal part); expressed in transfected cells; the other entry of the earlier key: ETV6 (P41212, Transcription factor ETV6)
Put plainly: Engineered Ba/F3 cell proliferation inhibition (MTS), ETV6-TRKC. The note with it: Ba/F3-ETV6-TRKC cells, 72 h.
Excerpt: as §1
(§2) To investigate whether a compound is able to inhibit the activity of TRK fusion mutation in cells, a mechanism-based assay using engineered Ba/F3 cell lines stably overexpressing oncogenic rearrangement or gene mutation of TRK (TPM3-TRKA, TPM3-TRKA-G595R, AFAP1-TRKB, ETV6-TRKC and ETV6-TRKC-G623R) were developed. In this assay, inhibition of TRK fusion mutation was detected by the cell proliferation inhibition of engineered Ba/F3 cells. Engineered Ba/F3 cells were cultured in culture flasks to 40-80% confluence in RPMI-1640 supplemented with 10% fetal bovine serum, 2 ug/mL puromycin. Cells were collected and plated onto 96-well plates at desired cell density (Ba/F3-TPM3-TRKA: 3×10^4/mL, Ba/F3-TPM3-TRKA-G595R: 1×10^5/mL, Ba/F3-AFAP1-TRKB: 1×10^5/mL, Ba/F3-ETV6-TRKC: 3×10^4/mL, Ba/F3-ETV6-TRKC-G623R: 3×10^4/mL). Plates were incubated at 37° C., with 5% CO2 for 4 h. Compounds were then added to the plates with the final compound concentrations of 10000, 3333, 1111, […], 123, 41.2, 13.7, 4.6 and 1.5 nM. Plates were incubated at 37° C., with 5% CO2 for 72 h. A mixture of 20 μl MTS/100 μl medium were added to each well and the plates were incubated at 37° C., with 5% CO2 for exactly 2 h. The reaction was stopped by adding 25 μl of 10% SDS per well. The absorbance was measured at 490 nm and 650 nm (reference wavelength). IC50 was calculated using GraphPad Prism 5.0 software.

A further assay has as its target T2, TPM3-TRKA (Homo sapiens, UniProt P04629).
T2 construct: TPM3 (fusion partner, N-terminal part); expressed in transfected cells; the other entry of the earlier key: TPM3 (P06753, Tropomyosin alpha-3 chain)
The experiment in a line: Engineered Ba/F3 cell proliferation inhibition (MTS), TPM3-TRKA. The note with it: Ba/F3-TPM3-TRKA cells, 72 h.
Excerpt: as §1, §2

T1 sequence (Q16288 530-825 isoform Q16288-3 limits assumed): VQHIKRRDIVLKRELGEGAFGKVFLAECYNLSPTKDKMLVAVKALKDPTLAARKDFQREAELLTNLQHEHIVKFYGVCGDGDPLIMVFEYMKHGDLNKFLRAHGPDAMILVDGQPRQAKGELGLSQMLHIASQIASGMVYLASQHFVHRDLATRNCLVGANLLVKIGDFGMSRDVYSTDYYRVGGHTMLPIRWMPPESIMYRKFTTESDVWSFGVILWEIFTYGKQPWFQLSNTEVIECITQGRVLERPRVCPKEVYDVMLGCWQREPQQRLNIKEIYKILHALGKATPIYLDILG
T2 sequence (P04629 510-796 limits assumed): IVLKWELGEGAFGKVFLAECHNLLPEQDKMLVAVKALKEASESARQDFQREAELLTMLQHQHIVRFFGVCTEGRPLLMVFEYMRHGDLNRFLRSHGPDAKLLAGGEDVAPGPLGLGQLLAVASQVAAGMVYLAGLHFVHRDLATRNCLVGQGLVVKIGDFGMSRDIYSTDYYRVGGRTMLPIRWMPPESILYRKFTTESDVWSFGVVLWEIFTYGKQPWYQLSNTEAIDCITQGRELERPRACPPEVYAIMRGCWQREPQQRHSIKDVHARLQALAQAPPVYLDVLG

In the case of `O=C(Nc1cnc2ccc(N3CC[C@H]4C[C@]43c3cc(F)ccc3F)nn12)N1CC[C@H](O)C1` [Example 4, (S)—N-(6-((1R,5S)-1-(2,5-difluorophenyl)-2-azabicyclo[3.1.0]hexan-2-yl)imidazo[1,2-b]pyridazin-3-yl)-3-hydroxypyrrolidine-1-carboxamide], the IC50 with KM12 cells is 2 nM; against ETV6-TRKC, 1 nM; against TPM3-TRKA, 5 nM.

On to `O=C(Nc1cnc2ccc(N3CC[C@H]4C[C@]43c3cc(F)ccc3F)nn12)N1CC[C@@H](O)C1` [Example 8, (R)-N-(6-((1R,5S)-1-(2,5-difluorophenyl)-2-azabicyclo[3.1.0]hexan-2-yl)imidazo[1,2-b]pyridazin-3-yl)-3-hydroxypyrrolidine-1-carboxamide], for which the values for the IC50 with KM12 cells, at ETV6-TRKC and against TPM3-TRKA were 25 nM, 5 nM and 5 nM, respectively.

For `O=C(Nc1cnn2ccc(N3CC[C@H]4C[C@]43c3cc(F)ccc3Cl)nc12)N1CC[C@@H](O)C1` [Example 3, (R)—N-(5-((1R,5S)-1-(2-chloro-5-fluorophenyl)-2-azabicyclo[3.1.0]hexan-2-yl)pyrazolo[1,5-a]pyrimidin-3-yl)-3-hydroxypyrrolidine-1-carboxamide], the IC50 was determined as 36 nM with KM12 cells, 17 nM on ETV6-TRKC and 47 nM against TPM3-TRKA.

For the compound `O=C(Nc1cnn2ccc(N3CC[C@H]4C[C@]43c3cc(F)ccc3F)nc12)N1CCC(F)(F)C1` [Example 12, N-(5-((1R,5S)-1-(2,5-difluorophenyl)-2-azabicyclo [3.1.0]hexan-2-yl)pyrazolo[1,5-a]pyrimidin-3-yl)-3,3-difluoropyrrolidine-1-carboxamide], the IC50 was 2 nM in the assay on KM12 cells and 9 nM at ETV6-TRKC.

`O=C(Nc1cnn2ccc(N3CC[C@H]4C[C@]43c3cc(F)ccc3F)nc12)N1CC[C@@H](O)C1` [Example 7, (R)-N-(5-((1R,5S)-1-(2,5-difluorophenyl)-2-azabicyclo[3.1.0]hexan-2-yl)pyrazolo[1,5-a]pyrimidin-3-yl)-3-hydroxypyrrolidine-1-carboxamide]: the results for the IC50 in the assay with KM12 cells, at ETV6-TRKC and against TPM3-TRKA were 20 nM, 3 nM and 3 nM, respectively.

Turning to `CO[C@H]1CCN(C(=O)Nc2cnn3ccc(N4CC[C@H]5C[C@]54c4cc(F)ccc4F)nc23)C1` [Example 9, (S)-N-(5-((1R,5S)-1-(2,5-difluorophenyl)-2-azabicyclo[3.1.0]hexan-2-yl)pyrazolo [1,5-a]pyrimidin-3-yl)-3-methoxypyrrolidine-1-carboxamide], the IC50 in the assay on KM12 cells turned out to be 42 nM; on ETV6-TRKC it was 4 nM.

In the assay on KM12 cells, `O=C(Nc1cnn2ccc(N3CC[C@H]4C[C@]43c3cc(F)ccc3F)nc12)N1CC[C@@H](F)C1` [Example 11, (R)-N-(5-((1R,5S)-1-(2,5-difluorophenyl)-2-azabicyclo[3.1.0]hexan-2-yl)pyrazolo [1,5-a]pyrimidin-3-yl)-3-fluoropyrrolidine-l-carboxamide] displayed an IC50 of 53 nM.

As for `O=C(Nc1cnn2ccc(N3CC[C@H]4C[C@]43c3cc(F)ccc3F)nc12)N1CCC(F)C1` (stereo in doubt) [Example 10, (R)-N-(5-((1R,5S)-1-(2,5-difluorophenyl)-2-azabicyclo[3.1.0]hexan-2-yl)pyrazolo [1,5-a]pyrimidin-3-yl)-3-fluoropyrrolidine-1-carboxamide], the IC50 with KM12 cells turned out to be 23 nM; against ETV6-TRKC it was 2 nM.

For the compound `O=C(Nc1cnn2ccc(N3CC[C@H]4C[C@]43c3cc(F)ccc3F)nc12)c1ccc(Cl)cn1` [Example 24, 5-chloro-N-(5-((1R,5S)-1-(2,5-difluorophenyl)-2-azabicyclo[3.1.0]hexan-2-yl)pyrazolo[1,5-a]pyrimidin-3-yl)picolinamide], the values for the concentration for half-maximal inhibition (IC50) in the assay on KM12 cells and against ETV6-TRKC were 38 nM and 16 nM, respectively.

On to `O=C1c2ccccc2CN1c1cnn2ccc(N3CC[C@H]4C[C@]43c3cc(F)ccc3F)nc12` [Example 28, 2-(5-((1R,5S)-1-(2,5-difluorophenyl)-2-azabicyclo [3.1.0]hexan-2-yl)pyrazolo[1,5-a]pyrimidin-3-yl)isoindolin-1-one], for which the IC50 on ETV6-TRKC amounted to 2 nM; against TPM3-TRKA it was 19 nM.
